Results published in patent US9789044B2, “Compounds and methods for repelling blood-feeding arthropods and deterring their landing and feeding” (SCOTTS CANADA LTD, priority 2008, dated 2017).

Columns and labels:
Aedes aegypti [1] = assay: General bioassay: treated human forearm in cage with host-seeking female mosquitoes, complete protection time (modified WHO 1996 protocol); assay type: in vivo; conditions: 10% formulation in mineral oil, 1.5 mg (total composition) per cm^2 on human forearm skin
Method: A black-eyed Liverpool strain of Aedes. aegypti was obtained from Dr. Carl Lowenberger, Simon Fraser University (SFU). Insects were reared under standardized conditions (60-70% relative humidity, 26-28° C., 14 h light:10 h dark photoperiod) in SFU's insectary. Neonate larvae that hatched in glass dishes of sterilized hypoxic water were transferred to trays of distilled water provisioned with Nutrafin® Basix Staple Food fish diet. Pupae were collected daily and separated by sex, and 15 females and 10 males were placed in a paper cup (7.5 cm diameter, 8.5 cm high) with a mesh lid. Emergent adults were fed a 10% (w/v) sucrose solution via braided cotton dental rolls. Arm-fed gravid females were offered water-containing paper cups, lined with paper-towel as an oviposition substrate. Candidate repellents and deterrents were bioassayed according to a modified protocol from the World Health Organization (1996). At least 1 hour prior to each bioassay, 75 host-seeking non blood-fed, nulliparous, 5- to 8-day-old female Aedes aegypti were placed into a wood-framed cage (26.5 cm on each side and 42.5 cm high) with a wooden floor, screened mesh sides and top, and a clear acrylic front fitted with a cotton stockinette sleeve (10 cm diameter). […] The time elapsed from experiment initiation to first bite was recorded as deterrent failure or complete protection time. […]

Anopheles gambiae = conditions: by itself or in combination with an adjuvant; cited from earlier work
Culex quinquefasciatus = conditions: by itself or in combination with an adjuvant; cited from earlier work
Aedes aegypti [2] = conditions: by itself or in combination with an adjuvant; cited from earlier work
mosquitoes = conditions: in vivo; cited from earlier work

C=CCSCCCCCCCC(=O)N(CC)CC [(N,N)-diethyl-8-allylsulfanyl-octanamide]
average duration of protection from bites by Aedes aegypti (Aedes aegypti [1]; Experiment 7, 4 replicates): 156 min

C=CCSCCCCCCCCO [8-allylsulfanyl-1-octanol]
average duration of protection from bites by Aedes aegypti (Aedes aegypti [1]; Experiments 1-6, 3-4 replicates): 123 min | deterring biting, effectiveness relative to DEET (Anopheles gambiae): more effective than DEET | deterring biting, effectiveness relative to DEET (Culex quinquefasciatus): more effective than DEET | deterring biting, effectiveness relative to DEET (Aedes aegypti [2]): more effective than DEET | repellency to mosquitoes (mosquitoes): repellent

C=CCSCCCCCCC(C)O (centres unmarked) [8-allylsulfanyloctan-2-ol]
repellency to mosquitoes (mosquitoes): repellent

C=CCSCCCCCCCCCO [9-allylsulfanylnonan-1-ol]
repellency to mosquitoes (mosquitoes): repellent
